From patent US9513294B2, “Megastokes amino-triazolyl-BODIPY compounds and applications to live neuron staining and human serum albumin FA1 drug site probing” (National University of Singapore, priority 2012, dated 2016)
Each block holds one compound with its values, some of them ahead of it.

Tests used:
[1] = Absorbance and fluorescence emission spectra (SpectraMax M2); format: physicochemical; conditions: for λmax Abs. (nm) / λmax Em. (nm): MKAC compound library; for λmax Abs. (nm) / λmax Absorp. (nm): absorbance maximum; for λmax Em. (nm) / λmax Emission (nm): fluorescence emission maximum; for λmax Absorp. (nm) / λmax Emission (nm): MKCA compound library
Summary of the method: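 Spectroscopic data, including quantum yields, were recorded with a SpectraMax M2 instrument and analysed in GraphPrism.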

[2] = Quantum yield measurements versus Acridine Yellow in EtOH; format: physicochemical; conditions: for φ (quantum yield): excitation 460 nm; for φ (%): quantum yield
Summary of the method: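 Emission areas integrated over 510–700 nm were compared with Acridine Yellow in ethanol (Φ=0.47), all excited at 460 nm. The comparative equation was normalized to excitation-wavelength absorbance and solvent refractive index.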

- λmax Absorp. ([1]; BDCAC library, Table 3): 467 nm
- λmax Emission ([1]; BDCAC library, Table 3): 562 nm
- φ (quantum yield) ([2]; BDCAC library, Table 3): 1.4%
SMILES: CCCCCCc1cn(-c2ccc3n2[B-](F)(F)[N+]2=C(N4CCCCC4)C=CC2=C3c2ccc(NC(C)=O)cc2)nn1 [BDCAC-47]

- λmax Absorp. ([1]; MK library, Table 5): 478 nm
- λmax Emission ([1]; MK library, Table 5): 584 nm
- φ (quantum yield) ([2]; MK library, Table 5): 0.23%
SMILES: CC(C)Cc1cn(-c2ccc3n2[B-](F)(F)[N+]2=C(N4CC(C)OC(C)C4)C=CC2=C3c2ccc(N)cc2)nn1 (stereo not drawn) [MK20-43]

- λmax Absorp. ([1]; MK library, Table 5): 474 nm
- λmax Emission ([1]; MK library, Table 5): 565 nm
- φ (quantum yield) ([2]; MK library, Table 5): 0.33%
SMILES: COc1ccc(OC)c(CNC2=[N+]3C(=C(c4ccc(N)cc4)c4ccc(-n5cc(CC6CCCCC6)nn5)n4[B-]3(F)F)C=C2)c1 [MK181-8]

- λmax Absorp. ([1]; BDCAC library, Table 3): 464 nm
- λmax Emission ([1]; BDCAC library, Table 3): 556 nm
- φ (quantum yield) ([2]; BDCAC library, Table 3): 2.4%
SMILES: CC(=O)Nc1ccc(C2=C3C=CC(N4CCCCC4)=[N+]3[B-](F)(F)n3c2ccc3-n2cc(-c3ccc(C)cc3)nn2)cc1 [BDCAC-10]

- λmax Abs. (nm) [1]: 467 nm
- λmax Em. (nm) [1]: 586 nm
- φ (%) ([2]; MKAC compound library): 1.33%
SMILES: CC(=O)Nc1ccc(C2=C3C=CC(N4CC(C)OC(C)C4)=[N+]3[B-](F)(F)n3c2ccc3-n2cc(CO)nn2)cc1 (stereo not drawn) [MKAC20-70]

- λmax Absorp. ([1]; MK library, Table 5): 474 nm
- λmax Emission ([1]; MK library, Table 5): 564 nm
- φ (quantum yield) ([2]; MK library, Table 5): 1.71%
SMILES: CCCC(C)c1cn(-c2ccc3n2[B-](F)(F)[N+]2=C(NCc4ccccc4OCC)C=CC2=C3c2ccc(N)cc2)nn1 (stereo not drawn) [MK103-3]

- λmax Abs. (nm) [1]: 467 nm
- λmax Em. (nm) [1]: 580 nm
- φ (%) ([2]; MKAC compound library): 3.47%
SMILES: CC(=O)Nc1ccc(C2=C3C=CC(N4CC(C)OC(C)C4)=[N+]3[B-](F)(F)n3c2ccc3-n2cc(C3CCCC3)nn2)cc1 (stereo not drawn) [MKAC20-5]

- λmax Absorp. ([1]; BDCCA library, Table 4): 465 nm
- λmax Emission ([1]; BDCCA library, Table 4): 584 nm
- φ (quantum yield) ([2]; BDCCA library, Table 4): 0.6%
SMILES: O=C(CCl)Nc1ccc(C2=C3C=CC(N4CCCCC4)=[N+]3[B-](F)(F)n3c2ccc3-n2cc(CO)nn2)cc1 [BDCCA-70]

- λmax Absorp. (nm) [1]: 463 nm
- λmax Emission (nm) [1]: 562 nm
- φ (%) ([2]; MKCA compound library): 33.37%
SMILES: Cc1ccccc1CNC1=[N+]2C(=C(c3ccc(NC(=O)CCl)cc3)c3ccc(-n4cc(CCc5ccccc5)nn4)n3[B-]2(F)F)C=C1 [MKCA101-19]

- λmax Absorp. (nm) [1]: 469 nm
- λmax Emission (nm) [1]: 584 nm
- φ (%) ([2]; MKCA compound library): 3.18%
SMILES: CCCc1cn(-c2ccc3n2[B-](F)(F)[N+]2=C(N4CCc5ccccc5C4)C=CC2=C3c2ccc(NC(=O)CCl)cc2)nn1 [MKCA66-48]

- λmax Absorp. ([1]; MK library, Table 5): 471 nm
- λmax Emission ([1]; MK library, Table 5): 568 nm
- φ (quantum yield) ([2]; MK library, Table 5): 0.53%
SMILES: Nc1ccc(C2=C3C=CC(N4CCCC4)=[N+]3[B-](F)(F)n3c2ccc3-n2cc(C3CCCC3)nn2)cc1 [MK215-5]

- λmax Abs. (nm) [1]: 465 nm
- λmax Em. (nm) [1]: 562 nm
- φ (%) ([2]; MKAC compound library): 17.25%
SMILES: CCCc1cn(-c2ccc3n2[B-](F)(F)[N+]2=C(NCc4ccccc4C)C=CC2=C3c2ccc(NC(C)=O)cc2)nn1 [MKAC101-48]

- λmax Absorp. ([1]; MK library, Table 5): 473 nm
- λmax Emission ([1]; MK library, Table 5): 564 nm
- φ (quantum yield) ([2]; MK library, Table 5): 2.01%
SMILES: CCOc1ccccc1CNC1=[N+]2C(=C(c3ccc(N)cc3)c3ccc(-n4cc(C5CCCC5)nn4)n3[B-]2(F)F)C=C1 [MK103-5]

- λmax Absorp. ([1]; BDC library, Table 2): 476 nm
- λmax Emission ([1]; BDC library, Table 2): 582 nm
- φ (quantum yield) ([2]; BDC library, Table 2): 0.16%
SMILES: Nc1ccc(C2=C3C=CC(N4CCCCC4)=[N+]3[B-](F)(F)n3c2ccc3-n2cc(C3CCCC3)nn2)cc1 [BDC-5]

- λmax Abs. (nm) [1]: 461 nm
- λmax Em. (nm) [1]: 574 nm
- φ (%) ([2]; MKAC compound library): 1.11%
SMILES: CC(=O)Nc1ccc(C2=C3C=CC(N4CCCC4)=[N+]3[B-](F)(F)n3c2ccc3-n2cc(CO)nn2)cc1 [MKAC215-70]

- λmax Absorp. ([1]; BDC library, Table 2): 475 nm
- λmax Emission ([1]; BDC library, Table 2): 589 nm
- φ (quantum yield) ([2]; BDC library, Table 2): 0.12%
SMILES: CCCCCCCCCCc1cn(-c2ccc3n2[B-](F)(F)[N+]2=C(N4CCCCC4)C=CC2=C3c2ccc(N)cc2)nn1 [BDC-49]

- λmax Absorp. ([1]; MK library, Table 5): 472 nm
- λmax Emission ([1]; MK library, Table 5): 562 nm
- φ (quantum yield) ([2]; MK library, Table 5): 1.93%
SMILES: CCOc1ccccc1CNC1=[N+]2C(=C(c3ccc(N)cc3)c3ccc(-n4cc(CO)nn4)n3[B-]2(F)F)C=C1 [MK103-70]

- λmax Absorp. (nm) [1]: 467 nm
- λmax Emission (nm) [1]: 563 nm
- φ (%) ([2]; MKCA compound library): 36.25%
SMILES: O=C(CCl)Nc1ccc(C2=C3C=CC(NCc4cc(F)cc(F)c4)=[N+]3[B-](F)(F)n3c2ccc3-n2cc(C3CC3)nn2)cc1 [MKCA412-4]

- λmax Absorp. ([1]; MK library, Table 5): 477 nm
- λmax Emission ([1]; MK library, Table 5): 579 nm
- φ (quantum yield) ([2]; MK library, Table 5): 0.39%
SMILES: CN(Cc1ccccc1)C1=[N+]2C(=C(c3ccc(N)cc3)c3ccc(-n4cc(C5CCCC5)nn4)n3[B-]2(F)F)C=C1 [MK195-5]

- λmax Absorp. (nm) [1]: 469 nm
- λmax Emission (nm) [1]: 582 nm
- φ (%) ([2]; MKCA compound library): 3.50%
SMILES: CCCC(C)c1cn(-c2ccc3n2[B-](F)(F)[N+]2=C(N4CCc5ccccc5C4)C=CC2=C3c2ccc(NC(=O)CCl)cc2)nn1 (stereo not drawn) [MKCA66-3]

- λmax Absorp. ([1]; MK library, Table 5): 475 nm
- λmax Emission ([1]; MK library, Table 5): 565 nm
- φ (quantum yield) ([2]; MK library, Table 5): 0.58%
SMILES: Cc1ccccc1CNC1=[N+]2C(=C(c3ccc(N)cc3)c3ccc(-n4cc(C5CCCC5)nn4)n3[B-]2(F)F)C=C1 [MK101-5]

- λmax Absorp. ([1]; BDCAC library, Table 3): 466 nm
- λmax Emission ([1]; BDCAC library, Table 3): 565 nm
- φ (quantum yield) ([2]; BDCAC library, Table 3): 1.9%
SMILES: CC(=O)Nc1ccc(C2=C3C=CC(N4CCCCC4)=[N+]3[B-](F)(F)n3c2ccc3-n2cc(C3=CCCCC3)nn2)cc1 [BDCAC-37]

- λmax Absorp. (nm) [1]: 464 nm
- λmax Emission (nm) [1]: 562 nm
- φ (%) ([2]; MKCA compound library): 6.28%
SMILES: O=C(CCl)Nc1ccc(C2=C3C=CC(NCc4cc(F)cc(F)c4)=[N+]3[B-](F)(F)n3c2ccc3-n2cc(CO)nn2)cc1 [MKCA412-70]

- λmax Absorp. ([1]; BDCCA library, Table 4): 464 nm
- λmax Emission ([1]; BDCCA library, Table 4): 575 nm
- φ (quantum yield) ([2]; BDCCA library, Table 4): 1.2%
SMILES: O=C(CCl)Nc1ccc(C2=C3C=CC(N4CCCCC4)=[N+]3[B-](F)(F)n3c2ccc3-n2cc(-c3ccc(-c4ccccc4)cc3)nn2)cc1 [BDCCA-23]

- λmax Absorp. ([1]; BDC library, Table 2): 475 nm
- λmax Emission ([1]; BDC library, Table 2): 567 nm
- φ (quantum yield) ([2]; BDC library, Table 2): 0.37%
SMILES: CCCC(C)c1cn(-c2ccc3n2[B-](F)(F)[N+]2=C(N4CCCCC4)C=CC2=C3c2ccc(N)cc2)nn1 (stereo not drawn) [BDC-3]

- λmax Absorp. (nm) [1]: 463 nm
- λmax Emission (nm) [1]: 573 nm
- φ (%) ([2]; MKCA compound library): 4.98%
SMILES: O=C(CCl)Nc1ccc(C2=C3C=CC(N4CCCC4)=[N+]3[B-](F)(F)n3c2ccc3-n2cc(CCc3ccccc3)nn2)cc1 [MKCA215-19]

- λmax Absorp. ([1]; BDCAC library, Table 3): 467 nm
- λmax Emission ([1]; BDCAC library, Table 3): 585 nm
- φ (quantum yield) ([2]; BDCAC library, Table 3): 0.8%
SMILES: CC(=O)Nc1ccc(C2=C3C=CC(N4CCCCC4)=[N+]3[B-](F)(F)n3c2ccc3-n2cc(CCC(C)C)nn2)cc1 [BDCAC-36]

- λmax Absorp. (nm) [1]: 464 nm
- λmax Emission (nm) [1]: 564 nm
- φ (%) ([2]; MKCA compound library): 36.22%
SMILES: CCOc1ccccc1CNC1=[N+]2C(=C(c3ccc(NC(=O)CCl)cc3)c3ccc(-n4cc(C5CC5)nn4)n3[B-]2(F)F)C=C1 [MKCA103-4]

- λmax Absorp. ([1]; MK library, Table 5): 473 nm
- λmax Emission ([1]; MK library, Table 5): 563 nm
- φ (quantum yield) ([2]; MK library, Table 5): 0.52%
SMILES: COc1ccc(OC)c(CNC2=[N+]3C(=C(c4ccc(N)cc4)c4ccc(-n5cc(CN(C)Cc6ccccc6)nn5)n4[B-]3(F)F)C=C2)c1 [MK181-18]

- λmax Abs. (nm) [1]: 465 nm
- λmax Em. (nm) [1]: 562 nm
- φ (%) ([2]; MKAC compound library): 25.32%
SMILES: CCOc1ccccc1CNC1=[N+]2C(=C(c3ccc(NC(C)=O)cc3)c3ccc(-n4cc(CC5CCCCC5)nn4)n3[B-]2(F)F)C=C1 [MKAC103-8]

- λmax Absorp. ([1]; MK library, Table 5): 471 nm
- λmax Emission ([1]; MK library, Table 5): 595 nm
- φ (quantum yield) ([2]; MK library, Table 5): 0.22%
SMILES: Nc1ccc(C2=C3C=CC(N4CCCC4)=[N+]3[B-](F)(F)n3c2ccc3-n2cc(CO)nn2)cc1 [MK215-70]
